Experiments:
pigweed = assay: Test B pre/postemergence pigweed; assay type: in vivo, Amaranthus retroflexus
In short: (§1)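 Response is a visual 0-to-10 score relative to untreated plants, where 0 means no effect and 10 means complete control, taken twelve to sixteen days after application. Treatments went onto soil at planting and onto foliage of 1- to 4-leaf plants, using a surfactant-containing non-phytotoxic solvent.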

rape = assay: Test B pre/postemergence rape; assay type: in vivo, Brassica napus
In short: as §1

soybean = assay: Test B pre/postemergence soybean; assay type: in vivo, Glycine max
In short: as §1

sugar beet = assay: Test B pre/postemergence sugar beet; assay type: in vivo, Beta vulgaris
In short: as §1

[1] = Preemergence, Rate 62 g/ha, scale of 0 to 10 where 0 is no effect and 10 is complete control
[2] = Preemergence, Rate 125 g/ha, 0 is no effect, 10 is complete control
[3] = Preemergence, Rate 250 g/ha, scale 0 to 10, 0 is no effect, 10 is complete control
[4] = Preemergence, Rate 500 g/ha, scale of 0 to 10 where 0 is no effect and 10 is complete control
[5] = Rate 62 g/ha, Postemergence, scale of 0 to 10 where 0 is no effect and 10 is complete control
[6] = Rate 125 g/ha, Postemergence, scale 0 to 10
[7] = Rate 500 g/ha, Postemergence, scale 0 to 10
[8] = Preemergence, Rate 250 g/ha, scale of 0 to 10 where 0 is no effect and 10 is complete control
[9] = Rate 125 g/ha, Preemergence, scale of 0 to 10 where 0 is no effect and 10 is complete control
[10] = Rate 500 g/ha, Postemergence, scale 0 to 10, 0 no effect, 10 complete control

Row | Compound | Redroot pigweed plant response rating (pigweed; [1]) | Plant response rating, Redroot pigweed (pigweed; [4]) | Redroot pigweed plant response rating (pigweed; [5]) | Redroot pigweed plant response rating (pigweed; [6]) | Plant response rating (0 to 10; 0 is no effect, 10 is complete control), Redroot pigweed (pigweed; Rate 250 g/ha, Postemergence) | Rape plant response rating (rape; [1]) | Plant response rating, Rape (rape; [4]) | Rape plant response rating (rape; [5]) | Rape plant response rating (rape; [6]) | Plant response rating (0 to 10; 0 is no effect, 10 is complete control), Rape (rape; Rate 250 g/ha, Postemergence) | Soybean plant response rating (soybean; [1]) | Plant response rating, Soybean (soybean; [4]) | Soybean plant response rating (soybean; [5]) | Soybean plant response rating (soybean; [6]) | Plant response rating (0 to 10; 0 is no effect, 10 is complete control), Soybean (soybean; Rate 250 g/ha, Postemergence) | Sugarbeets plant response rating (sugar beet; [1]) | Plant response rating, Sugarbeets (sugar beet; [4]) | Sugarbeets plant response rating (sugar beet; [5]) | Sugarbeets plant response rating (sugar beet; [6]) | Plant response rating (0 to 10; 0 is no effect, 10 is complete control), Sugarbeets (sugar beet; Rate 250 g/ha, Postemergence) | also measured
1 | Cc1ccccc1-n1c(=O)on(C(=O)N(c2ccc(S(C)(=O)=O)cc2)C(C)C)c1=O [Compound 203] | 0 | 0 | 0 | 0 | 0 | 0 | 0 | 0 | 0 | 0 | 0 | 0 | 0 | 0 | 0 | 0 | 0 | 0 | 0 | 0 | Redroot pigweed plant response rating (0 to 10 scale) (pigweed; [2]): 0; Redroot pigweed plant response rating (pigweed; [3]): 0; Redroot pigweed plant response rating (pigweed; [7]): 0; Rape plant response rating (0 to 10 scale) (rape; [2]): 0; Rape plant response rating (rape; [3]): 0; Rape plant response rating (rape; [7]): 0; Soybean plant response rating (0 to 10 scale) (soybean; [2]): 0; Soybean plant response rating (soybean; [3]): 0; Soybean plant response rating (soybean; [7]): 0; Sugarbeets plant response rating (0 to 10 scale) (sugar beet; [2]): 0; Sugarbeets plant response rating (sugar beet; [3]): 0; Sugarbeets plant response rating (sugar beet; [7]): 0
2 | COCCOCn1c(=O)on(C(=O)N(c2ccc(F)cc2)C(C)C)c1=O [Compound 220] | 0 | 10 | 0 | 1 | 3 | 1 | 8 | 0 | 0 | 3 | 0 | 3 | 5 | 5 | 7 | 5 | 8 | 0 | 0 | 2 | Redroot pigweed plant response rating (pigweed; [8]): 8; Redroot pigweed plant response rating (pigweed; [9]): 2; Redroot pigweed plant response rating (pigweed; [10]): 4; Rape plant response rating (rape; [8]): 8; Rape plant response rating (rape; [9]): 6; Rape plant response rating (rape; [10]): 4; Soybean plant response rating (soybean; [8]): 0; Soybean plant response rating (soybean; [9]): 0; Soybean plant response rating (soybean; [10]): 7; Sugarbeets plant response rating (sugar beet; [8]): 8; Sugarbeets plant response rating (sugar beet; [9]): 6; Sugarbeets plant response rating (sugar beet; [10]): 2
3 | Cc1cc(C)c(-n2c(=O)on(C(=O)N(c3ccc(F)cc3)C(C)C)c2=O)c(Br)c1 [Compound 224] | 0 | 4 | 0 | 2 | 4 | 0 | 0 | 0 | 0 | 0 | 0 | 0 | 2 | 3 | 4 | 0 | 0 | 1 | 2 | 4 | Redroot pigweed plant response rating (pigweed; [8]): 0; Redroot pigweed plant response rating (pigweed; [9]): 0; Redroot pigweed plant response rating (pigweed; [10]): 7; Rape plant response rating (rape; [8]): 0; Rape plant response rating (rape; [9]): 0; Rape plant response rating (rape; [10]): 0; Soybean plant response rating (soybean; [8]): 0; Soybean plant response rating (soybean; [9]): 0; Soybean plant response rating (soybean; [10]): 2; Sugarbeets plant response rating (sugar beet; [8]): 0; Sugarbeets plant response rating (sugar beet; [9]): 0; Sugarbeets plant response rating (sugar beet; [10]): 4
4 | CCC(C)N(C(=O)n1oc(=O)n(-c2ccccc2C)c1=O)c1ccc(F)cc1 (centres unmarked) [Compound 239] | 0 | 0 | 0 |  | 3 | 0 | 0 | 0 |  | 0 | 0 | 0 | 1 |  |  | 0 | 0 | 0 |  |  | Redroot pigweed plant response rating (pigweed; [8]): 0; Redroot pigweed plant response rating (pigweed; [9]): 0; Redroot pigweed plant response rating (pigweed; [10]): 7; Rape plant response rating (rape; [8]): 0; Rape plant response rating (rape; [9]): 0; Rape plant response rating (rape; [10]): 0; Soybean plant response rating (soybean; [8]): 0; Soybean plant response rating (soybean; [9]): 0; Soybean plant response rating (soybean; [10]): 3; Sugarbeets plant response rating (sugar beet; [8]): 0; Sugarbeets plant response rating (sugar beet; [9]): 0; Sugarbeets plant response rating (sugar beet; [10]): 0

— patent publication US6737383B1, “Herbicidal oxadiazolidines” (priority 1999, dated 2004)
